Results on eleven compounds are retold here after patent US11986480B2, “Heterocyclic compound” (TOHOKU UNIVERSITY, priority 2017, dated 2024).

For this assay, the system named is EmGFP-HaloTag. Nature of the assay: Test Example 1: HeLa cells stably expressing EmGFP-HaloTag, Western blot GFP/actin (Testing Method A). It is filed as cell-based. The following applies: 24 hours, 1 or less = degradation promoted. The method, then:
Test Example 1: Evaluation Method Using Cell Stably Expressing EmGFP-HaloTag (Testing Method A)
HeLa cells stably expressing EmGFP-HaloTag were inoculated to Dulbecco's Modified Eagle Medium (DMEM) and cultured for 24 hours. Then, a test compound (specifically, compounds of Examples 1 to 7, 9 to 11, 13 to 15, 17 to 20, 24 to 27, 29, 32 to 33, 36 to 42, 44 to 46 and 56) was added thereto at the final concentration shown in Table 2, followed by incubation for 24 hours under conditions of 37° C./5% CO2. The cells were washed with PBS three times and treated with a cell lysis solution containing a proteolytic enzyme inhibitor to obtain a cell extract. The cell extract was subjected to SDS-PAGE. After the electrophoresis, GFP and actin were detected by Western blot. The ratio of the GFP/actin value of the drug-treated cells to the GFP/actin value of a control group in drug-untreated cells was regarded as an activity value. A value of 1 or less represents that degradation of EmGFP-HaloTag was promoted.

For `CC(=O)N[C@@H](CSc1nc2c(=O)[nH]c(N)nc2n1Cc1ccc(Cl)cc1)C(=O)NCCOCCOCCOCCOCCOCCCCCCCl` [Example 1, N^2-Acetyl-S-(2-amino-9-(4-chlorobenzyl)-6-oxo-6,9-dihydro-1H-purin-8-yl)-N-(21-chloro-3,6,9,12,15-pentaoxahenicos-1-yl)-L-cysteinamide], the “Activity value (GFP/actin of drug-treated cells relative to drug-untreated control)” value (10 uM) came to 0.7.
Regarding `Nc1nc2c(nc(SCCC(=O)NCCOCCOCCOCCOCCOCCCCCCCl)n2Cc2ccc(F)cc2)c(=O)[nH]1` [Example 2], the “Activity value (GFP/actin of drug-treated cells relative to drug-untreated control)” value (10 uM) was 0.9.
As to `Nc1nc2c(nc(-c3ccc(C(=O)NCCOCCOCCOCCOCCOCCCCCCCl)cc3)n2Cc2ccc(F)cc2)c(=O)[nH]1` [Example 3, 4-(2-Amino-9-(4-fluorobenzyl)-6-oxo-6,9-dihydro-1H-purin-8-yl)-N-(21-chloro-3,6,9,12,15-pentaoxahenicos-1-yl)benzamide], the “Activity value (GFP/actin of drug-treated cells relative to drug-untreated control)” value (100 uM) turned out to be 0.3.
`Nc1nc2c(nc(-c3cccc(C(=O)NCCOCCOCCOCCOCCOCCCCCCCl)c3)n2Cc2ccc(F)cc2)c(=O)[nH]1` [Example 4, 3-(2-amino-9-(4-fluorobenzyl)-6-oxo-6,9-dihydro-1H-purin-8-yl)-N-(21-chloro-3,6,9,12,15-pentnoxahenicos-1-yl)benzamide]: where the note is “10 uM”, the “Activity value (GFP/actin of drug-treated cells relative to drug-untreated control)” value amounted to 0.8.
For the compound `Nc1nc2c(nc(/C=C/C(=O)NCCOCCOCCOCCOCCOCCCCCCCl)n2Cc2ccc(F)cc2)c(=O)[nH]1` [Example 5, (2E)-3-(2-Amino-9-(4-fluorobenzyl)-6-oxo-6,9-dihydro-1H-purin-8-yl)-N-(21-chloro-3,6,9,12,15-pentaoxahenicos-1-yl)acrylamide], where the note is “1 uM”, the “Activity value (GFP/actin of drug-treated cells relative to drug-untreated control)” value worked out at 0.3.
Take `Nc1nc2c(nc(CCC(=O)NCCOCCOCCOCCOCCOCCCCCCCl)n2Cc2ccc(F)cc2)c(=O)[nH]1` [Example 6, 3-(2-Amino-9-(4-fluorobenzyl)-6-oxo-6,9-dihydro-1H-purin-8-yl)-N-(21-chloro-3,6,9,12,15-pentaoxahenicos-1-yl)propanamide]: the “Activity value (GFP/actin of drug-treated cells relative to drug-untreated control)” value (10 uM) came to 0.94.
As to `Nc1nc2c(nc(SCC(=O)NCCOCCOCCOCCOCCOCCCCCCCl)n2Cc2ccc(F)cc2)c(=O)[nH]1` [Example 7], under “5 uM”, the “Activity value (GFP/actin of drug-treated cells relative to drug-untreated control)” value is recorded as 0.79.
On the same count and under the same terms, the value for `Nc1nc2c(nc(NCC(=O)NCCOCCOCCOCCOCCOCCCCCCCl)n2Cc2ccc(F)cc2)c(=O)[nH]1` [Example 9, N^2-(2-amino-9-(4-fluorobenzyl)-6-oxo-6,9-dihydro-1H-purin-8-yl)-N-(21-chloro-3,6,9,12,15-pentaoxahenicos-1-yl)glycinamide] was 0.47.
Turning to `Nc1nc2c(nc(-c3cccc(OCCOCCOCCOCCOCCOCCCCCCCl)c3)n2Cc2ccc(F)cc2)c(=O)[nH]1` [Example 10], where the note is “1 uM”, the “Activity value (GFP/actin of drug-treated cells relative to drug-untreated control)” value came out at 0.3.
As for `Nc1nc2c(nc(-c3ccc(OCCOCCOCCOCCOCCOCCCCCCCl)cc3)n2Cc2ccc(F)cc2)c(=O)[nH]1` [Example 11, 2-amino-8-(4-((21-chloro-3,6,9,12,15-pentaoxahenicos-1-yl)oxy)phenyl)-9-(4-fluorobenzyl)-1,9-dihydro-6H-purin-6-enea], the “Activity value (GFP/actin of drug-treated cells relative to drug-untreated control)” value (10 uM) is on record as 0.7.
For the compound `CC(=O)N[C@@H](CSc1nc2c(=O)n(C)c(=O)n(C)c2n1Cc1ccc(F)cc1)C(=O)NCCOCCOCCOCCOCCOCCCCCCCl` [Example 13, N^2-Acetyl-N-(21-chloro-3,6,9,12,15-pentaoxahenicos-1-yl)-S-(9-(4-fluorobenzyl)-1,3-dimethyl-2,6-dioxo-2,3,6,9-tetrahydro-1H-purin-8-yl)-L-cysteinamide], the “Activity value (GFP/actin of drug-treated cells relative to drug-untreated control)” value (1 uM) was determined as 0.1.
